Source: US8536168B2 (Novartis AG, priority 2007, dated 2013)
Where two headings read alike, the source gives them in different places.

Tests used:
Gli-luciferase activity = assay: Reporter gene assay (RGA) in TMHh12 cells, antagonism of Gli-luciferase activity in the presence of a Smo agonist; format: cell-based
Description: Activity of the compounds was evaluated using a reporter gene assay (RGA) in TMHh12 cells.

[1] = molecular target: human Smoothened receptor (Homo sapiens, UniProt Q99835); assay: Smo binding assay, displacement of radio-labeled smoothened agonist, filter binding format (human); settings: displacement of small molecule agonist of Smoothened, read-out: Human Smo bdg., IC50
Sequence of human Smoothened receptor (Q99835 28-787): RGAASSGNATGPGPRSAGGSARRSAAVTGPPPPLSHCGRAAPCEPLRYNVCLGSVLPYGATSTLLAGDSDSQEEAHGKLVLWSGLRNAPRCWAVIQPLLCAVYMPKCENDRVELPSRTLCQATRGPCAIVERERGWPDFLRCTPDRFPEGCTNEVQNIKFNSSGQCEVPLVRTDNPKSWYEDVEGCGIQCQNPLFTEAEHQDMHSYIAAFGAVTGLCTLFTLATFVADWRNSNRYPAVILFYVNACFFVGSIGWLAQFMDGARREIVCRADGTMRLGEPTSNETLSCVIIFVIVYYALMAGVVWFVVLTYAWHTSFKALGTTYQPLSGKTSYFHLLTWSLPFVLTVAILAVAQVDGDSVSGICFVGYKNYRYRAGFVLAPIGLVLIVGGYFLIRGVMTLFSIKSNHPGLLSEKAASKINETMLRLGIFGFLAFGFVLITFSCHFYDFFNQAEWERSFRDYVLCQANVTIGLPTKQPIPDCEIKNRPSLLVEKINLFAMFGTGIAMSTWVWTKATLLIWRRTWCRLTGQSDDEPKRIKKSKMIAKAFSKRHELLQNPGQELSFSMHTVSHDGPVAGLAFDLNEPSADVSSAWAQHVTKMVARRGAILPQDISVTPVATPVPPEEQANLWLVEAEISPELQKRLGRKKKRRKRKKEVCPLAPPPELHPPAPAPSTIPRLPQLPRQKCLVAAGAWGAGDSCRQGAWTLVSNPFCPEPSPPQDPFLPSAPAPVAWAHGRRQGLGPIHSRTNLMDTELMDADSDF
Description: A Smo binding assay was developed using radio-labeled smoothened agonist for compound competition. Table 9 lists the IC50 for displacement of a small molecule agonist of Smoothened determined in a filter binding format for the mouse and human Smoothened receptor.

[2] = molecular target: mouse Smoothened receptor (Mus musculus, UniProt P56726); assay: Smo binding assay, displacement of radio-labeled smoothened agonist, filter binding format (mouse); settings: displacement of small molecule agonist of Smoothened, read-out: Mouse Smo bdg., IC50
Sequence of mouse Smoothened receptor (P56726 33-793): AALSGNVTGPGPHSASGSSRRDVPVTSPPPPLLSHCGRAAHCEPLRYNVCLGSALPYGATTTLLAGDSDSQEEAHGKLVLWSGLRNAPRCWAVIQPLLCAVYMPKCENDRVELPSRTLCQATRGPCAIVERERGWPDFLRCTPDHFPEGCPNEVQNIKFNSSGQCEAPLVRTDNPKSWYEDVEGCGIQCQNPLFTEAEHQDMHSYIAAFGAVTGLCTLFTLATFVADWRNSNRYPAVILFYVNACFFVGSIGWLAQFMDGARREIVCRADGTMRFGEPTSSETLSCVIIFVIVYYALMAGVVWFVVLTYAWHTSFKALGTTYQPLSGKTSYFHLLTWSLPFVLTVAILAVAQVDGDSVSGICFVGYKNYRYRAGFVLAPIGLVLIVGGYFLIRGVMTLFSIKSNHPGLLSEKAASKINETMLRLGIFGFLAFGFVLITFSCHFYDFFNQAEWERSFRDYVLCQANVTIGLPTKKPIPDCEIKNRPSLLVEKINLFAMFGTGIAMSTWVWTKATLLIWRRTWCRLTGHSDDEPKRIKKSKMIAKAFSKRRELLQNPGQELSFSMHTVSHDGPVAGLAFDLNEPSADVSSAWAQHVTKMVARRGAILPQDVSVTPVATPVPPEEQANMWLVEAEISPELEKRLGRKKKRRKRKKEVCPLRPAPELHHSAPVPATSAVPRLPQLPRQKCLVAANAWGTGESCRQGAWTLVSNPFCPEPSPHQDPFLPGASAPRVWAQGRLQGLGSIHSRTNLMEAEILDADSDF
Description: A Smo binding assay was developed using radio-labeled smoothened agonist for compound competition.

[3] = 25 nM small molecule Smo agonist, read-out: RGA (25 nM Smo agonist) IC50
[4] = read-out: RGA (1 nM Smo agonist) IC50, 1 nM small molecule Smo agonist

IC50 (Gli-luciferase activity; [3]) [nM]	IC50 (Gli-luciferase activity; [4]) [nM]	IC50 [1] [nM]	IC50 [2] [nM]	SMILES
< 100	< 100	< 100	< 100	CC(C)(O)c1cnc(N2CCN(c3nnc(Cc4ccccc4)c4ccccc34)CC2)cn1 [Example 150]
100 to 1000	< 100	< 100	< 100	CC(C)(O)c1cnc(N2CCN(c3nnc(Cc4ccccc4)c4ccccc34)CC2)nc1 [Example 151]
100 to 1000	< 100	100 to 1000	< 100	CC(C)(O)c1ccc(N2CCN(c3nnc(Cc4ccccc4)c4ccccc34)CC2)nn1 [Example 152]
< 100	< 100	< 100	< 100	C[C@@H]1CN(c2nnc(Cc3ccccc3)c3ccccc23)CCN1c1ccc(C(C)(C)O)cn1 [Example 154]
< 100	< 100	< 100	< 100	C[C@H]1CN(c2ccc(C(C)(C)O)cn2)CCN1c1nnc(Cc2ccccc2)c2ccccc12 [Example 155]
< 100	< 100	< 100	< 100	C[C@@H]1CN(c2nnc(Cc3ccccc3)c3ccccc23)CCN1c1cnc(C(C)(C)O)cn1 [Example 156]
< 100	< 100	< 100	< 100	CC(=O)c1cnc(N2CCN(c3nnc(Cc4ccccc4)c4ccccc34)C[C@H]2C)cn1 [Example 157]
1000 to 10000	100 to 1000	100 to 1000	100 to 1000	COCC(=O)OCc1ccc(N2CCN(c3nnc(Cc4ccccc4)c4ccccc34)CC2)nc1 [Example 159, Methoxy-acetic acid 6-[4-(4-benzyl-phthalazin-1-yl)-piperazin-1-yl]-pyridin-3-ylmethyl ester]
100 to 1000	< 100	100 to 1000	100 to 1000	CN(C)C(=O)OCc1ccc(N2CCN(c3nnc(Cc4ccccc4)c4ccccc34)CC2)nc1 [Example 160, Dimethyl-carbamic acid 6-[4-(4-benzyl-phthalazin-1-yl)-piperazin-1-yl]-pyridin-3-ylmethyl ester]
< 100	< 100	< 100	< 100	COC(C)(C)c1ccc(N2CCN(c3nnc(Cc4ccccc4)c4ccccc34)CC2)nc1 [Example 161, 1-Benzyl-4-{-4-[5-(1-methoxy-1-methyl-ethyl)-pyridin-2-yl]-piperazin-1-yl}-phthalazine]
< 100	< 100	< 100	< 100	CC(=O)NC(C)(C)c1ccc(N2CCN(c3nnc(Cc4ccccc4)c4ccccc34)CC2)nc1 [Example 162, N-(1-{6-[4-(4-Benzyl-phthalazin-1-yl)-piperazin-1-yl]-pyridin-3-yl}-1-methyl-ethyl)-acetamide]
100 to 1000	< 100	< 100	< 100	CC(O)c1ccc(N2CCN(c3nnc(Cc4ccccc4)c4ccccc34)CC2)nc1 (stereo not shown) [Example 163, 1-{6-[4-(4-Benzyl-phthalazin-1-yl)-piperazin-1-yl]-pyridin-3-yl}-ethanol]
< 100	< 100	< 100	< 100	CC1(c2ccc(N3CCN(c4nnc(Cc5ccccc5)c5ccccc45)CC3)nc2)OCCO1 [Example 164, 1-Benzyl-4-(4-(5-(2-methyl-1,3-dioxolan-2-yl)pyridin-2-yl)piperazin-1-yl)phthalazine]
< 100	< 100	< 100	< 100	CC(C)c1cnc(N2CCN(c3nnc(Cc4ccccc4)c4ccccc34)CC2)cn1 [Example 165, 4-(4-Benzyl-phthalazin-1-yl)-5′-isopropyl-3,4,5,6-tetrahydro-2H-[1,2′]bipyrazinyl]

Second part, the compound before the results:

SMILES	IC50 (Gli-luciferase activity; [3]) [nM]	IC50 (Gli-luciferase activity; [4]) [nM]	IC50 [1] [nM]	IC50 [2] [nM]
CC(C)(N)c1ccc(N2CCN(c3nnc(Cc4ccccc4)c4ccccc34)CC2)nc1 [Example 120, 2-(6-(4-(4-Benzylphthalazin-1-yl)piperazin-1-yl)pyridin-3-yl)propan-2-amine]	< 100	< 100	< 100	< 100
COCC(=O)NC(C)(C)c1ccc(N2CCN(c3nnc(Cc4ccccc4)c4ccccc34)CC2)nc1 [Example 121, N-(2-(6-(4-(4-Benzylphthalazin-1-yl)piperazin-1-yl)pyridin-3-yl)propan-2-yl)-2-methoxyacetamide]	< 100	< 100	< 100	< 100
COCCC(=O)NC(C)(C)c1ccc(N2CCN(c3nnc(Cc4ccccc4)c4ccccc34)CC2)nc1 [Example 122]	100 to 1000	< 100	100 to 1000	< 100
CC(C)(NC(=O)OCc1ccccc1)c1ccc(N2CCN(c3nnc(Cc4ccccc4)c4ccccc34)CC2)nc1 [Example 123]	100 to 1000	< 100	< 100	< 100
CC(C)(O)c1ccc(C2CCN(c3nnc(Cc4ccccc4)c4ccccc34)CC2)cc1 [Example 124]	1000 to 10000	< 100	100 to 1000	100 to 1000
NCc1ccc(C2CCN(c3nnc(Cc4ccccc4)c4ccccc34)CC2)cc1 [Example 125, 4-[1-(4-Benzyl-phthalazine-1-yl)-piperidine-4-yl]-benzylamine]	1000 to 10000	100 to 1000	1000 to 10000	100 to 1000
CC(=O)Nc1ccc(C2CCN(c3nnc(Cc4ccccc4)c4ccccc34)CC2)cc1 [Example 129]	1000 to 10000	100 to 1000	1000 to 10000	100 to 1000
Cc1nc(N2CCN(c3nnc(Cc4ccccc4)c4ccccc34)CC2)ccc1C#N [Example 130]	1000 to 10000	100 to 1000	1000 to 10000	1000 to 10000
O=C1CCCN1c1ccc(N2CCN(c3nnc(Cc4ccccc4)c4ccccc34)CC2)nc1 [Example 131]	100 to 1000	100 to 1000	< 100	< 100
NS(=O)(=O)c1ccc(N2CCN(c3nnc(Cc4ccccc4)c4ccccc34)CC2)nc1 [Example 132]	100 to 1000	< 100	< 100	< 100
O=S(=O)(c1ccc(N2CCN(c3nnc(Cc4ccccc4)c4ccccc34)CC2)nc1)N1CCCC1 [Example 133]	100 to 1000	< 100	100 to 1000	100 to 1000
CC(=O)c1ccc(N2CCN(c3nnc(Cc4ccccc4)c4ccccc34)CC2)nc1 [Example 134]	< 100	< 100	< 100	< 100
OC1(c2ccc(N3CCN(c4nnc(Cc5ccccc5)c5ccccc45)CC3)nc2)CC1 [Example 135]	100 to 1000	< 100	< 100	< 100
COC(=O)c1cnc(N2CCN(c3nnc(Cc4ccccc4)c4ccccc34)CC2)cc1C(F)(F)F [Example 136]	100 to 1000	< 100	< 100	< 100
CCOC(=O)c1cnc(N2CCN(c3nnc(Cc4ccccc4)c4ccccc34)CC2)nc1C(F)(F)F [Example 137]	< 100	< 100	< 100	< 100
COC(=O)c1cnc(N2CCN(c3nnc(Cc4ccccc4)c4ccccc34)CC2)cn1 [Example 138]	100 to 1000	< 100	< 100	< 100
COC(=O)c1ccc(N2CCN(c3nnc(Cc4ccccc4)c4ccccc34)CC2)nn1 [Example 139]	1000 to 10000	100 to 1000	< 100	< 100
C[C@@H]1CN(c2nnc(Cc3ccccc3)c3ccccc23)CCN1c1ccc(C#N)cn1 [Example 142, 6-[(R)-4-(4-Benzyl-phthalazin-1-yl)-2-methyl-piperazin-1-yl]-nicotinonitrile]	100 to 1000	< 100	< 100	< 100
C[C@H]1CN(c2nnc(Cc3ccccc3)c3ccccc23)CCN1c1ccc(C#N)cn1 [Example 143, 6-[(S)-4-(4-Benzyl-phthalazin-1-yl)-2-methyl-piperazin-1-yl]-nicotinonitrile]	100 to 1000	< 100	< 100	< 100
CCOC(=O)c1ccc(N2CCN(c3nnc(Cc4ccccc4)c4ccccc34)C[C@H]2C)nc1 [Example 144, 6-[(R)-4-(4-Benzyl-phthalazin-1-yl)-2-methyl-piperazin-1-yl]-nicotinic acid ethyl ester]	100 to 1000	< 100	< 100	< 100
CCOC(=O)c1cnc(N2CCN(c3nnc(Cc4ccccc4)c4ccccc34)C[C@H]2C(=O)OC)nc1C(F)(F)F [Example 147, 2-[(S)-4-(4-Benzyl-phthalazin-1-yl)-2-methoxycarbonyl-piperazin-1-yl]-4-trifluoromethyl-pyrimidine-5-carboxylic acid ethyl ester]	1000 to 10000	100 to 1000	< 100	100 to 1000
CC(C)(O)c1cnc(N2CCN(c3nnc(Cc4ccccc4)c4ccccc34)CC2)cc1C(F)(F)F [Example 148]	< 100	< 100	< 100	< 100
CC(C)(O)c1cnc(N2CCN(c3nnc(Cc4ccccc4)c4ccccc34)CC2)nc1C(F)(F)F [Example 149]	< 100	< 100	< 100	< 100
